Experimental data published in ChEMBL document CHEMBL4382234, “Fluoroquinolone-isatin hybrids and their biological activities” (Eur J Med Chem, 2019).
≈ marks a conversion by molar mass, not a printed value.

system: Mycobacterium tuberculosis; test: Potency index, ratio of gatifloxacin MIC to test compound MIC for multidrug-resistant Mycobacterium tuberculosis; assay type: functional

For `CO/N=C1/C(=O)N(CCCN2CCN(c3c(F)cc4c(=O)c(C(=O)O)cn(C5CC5)c4c3OC)CC2C)c2ccc(F)cc21` (centres undefined), the Ratio was “>=4 - 512”.

system: Mycobacterium tuberculosis; test: Antimycobacterial activity against isoniazid/rifampicin/ethambutol-resistant Mycobacterium tuberculosis after 3 to 7 days by rapid direct susceptibility test; assay type: functional

`NC(=S)N/N=C1/C(=O)N(CCCN2CCN(c3cc4c(cc3F)c(=O)c(C(=O)O)cn4C3CC3)CC2)c2ccccc21` and `NC(=O)N/N=C1/C(=O)N(CCCN2CCN(c3cc4c(cc3F)c(=O)c(C(=O)O)cn4C3CC3)CC2)c2ccccc21` fall in the same range of MIC: 0.1 to 64 mg/L (≈ 0.169 to 108 µM) for the first, 0.1 to 64 mg/L (≈ 0.174 to 111 µM) for the second.

`O=C(O)c1cn(C2CC2)c2cc(N3CCN(CCCN4C(=O)/C(=N/O)c5ccccc54)CC3)c(F)cc2c1=O` and `Cc1ccc2c(c1)/C(=N\O)C(=O)N2CCCN1CCN(c2cc3c(cc2F)c(=O)c(C(=O)O)cn3C2CC2)CC1` fall in the same range of MIC: 0.1 to 64 mg/L (≈ 0.187 to 120 µM) for the first, 0.1 to 64 mg/L (≈ 0.183 to 117 µM) for the second.

`Cc1ccc2c(c1)/C(=N\NC(N)=O)C(=O)N2CCCN1CCN(c2cc3c(cc2F)c(=O)c(C(=O)O)cn3C2CC2)CC1` and `Cc1ccc2c(c1)/C(=N\NC(N)=S)C(=O)N2CCCN1CCN(c2cc3c(cc2F)c(=O)c(C(=O)O)cn3C2CC2)CC1` fall in the same range of MIC: 0.1 to 64 mg/L (≈ 0.17 to 109 µM) for the first, 0.1 to 64 mg/L (≈ 0.165 to 106 µM) for the second.

system: Mycobacterium tuberculosis; test: Antimycobacterial activity against multidrug-resistant Mycobacterium tuberculosis 09710 by rapid direct susceptibility test; assay type: functional

`CCO/N=C1\C(=O)N(CCN2CCC[C@H]3CN(c4c(F)cc5c(=O)c(C(=O)O)cn(C6CC6)c5c4OC)C[C@H]32)c2ccc(F)cc21` and `CCO/N=C1\C(=O)N(CN2CCC[C@H]3CN(c4c(F)cc5c(=O)c(C(=O)O)cn(C6CC6)c5c4OC)C[C@H]32)c2ccc(F)cc21` fall in the same range of MIC: 0.39 to 16 mg/L (≈ 0.614 to 25.2 µM) for the first, 0.39 to 16 mg/L (≈ 0.627 to 25.7 µM) for the second.

`COc1c(N2C[C@@H]3CCCN(CN4C(=O)/C(=N\NC(N)=S)c5cc(F)ccc54)[C@@H]3C2)c(F)cc2c(=O)c(C(=O)O)cn(C3CC3)c12` and `COc1c(N2C[C@@H]3CCCN(CN4C(=O)/C(=N\NC(N)=O)c5cc(F)ccc54)[C@@H]3C2)c(F)cc2c(=O)c(C(=O)O)cn(C3CC3)c12` fall in the same range of MIC: 0.39 to 16 mg/L (≈ 0.598 to 24.6 µM) for the first, 0.39 to 16 mg/L (≈ 0.614 to 25.2 µM) for the second.

`CO/N=C1\C(=O)N(CN2CCC[C@H]3CN(c4c(F)cc5c(=O)c(C(=O)O)cn(C6CC6)c5c4OC)C[C@H]32)c2ccc(F)cc21` and `COc1c(N2C[C@@H]3CCCN(CN4C(=O)/C(=N\O)c5cc(F)ccc54)[C@@H]3C2)c(F)cc2c(=O)c(C(=O)O)cn(C3CC3)c12` fall in the same range of MIC: 0.39 to 16 mg/L (≈ 0.642 to 26.3 µM) for the first, 0.39 to 16 mg/L (≈ 0.657 to 27 µM) for the second.

`COc1c(N2C[C@@H]3CCCN(CCN4C(=O)/C(=N\NC(N)=O)c5ccccc54)[C@@H]3C2)c(F)cc2c(=O)c(C(=O)O)cn(C3CC3)c12` and `COc1c(N2C[C@@H]3CCCN(CCN4C(=O)/C(=N\NC(N)=S)c5ccccc54)[C@@H]3C2)c(F)cc2c(=O)c(C(=O)O)cn(C3CC3)c12` fall in the same range of MIC: 0.39 to 16 mg/L (≈ 0.617 to 25.3 µM) for the first, 0.39 to 16 mg/L (≈ 0.602 to 24.7 µM) for the second.

`CO/N=C1\C(=O)N(CCN2CCC[C@H]3CN(c4c(F)cc5c(=O)c(C(=O)O)cn(C6CC6)c5c4OC)C[C@H]32)c2cc(F)ccc21` and `CO/N=C1\C(=O)N(CCN2CCC[C@H]3CN(c4c(F)cc5c(=O)c(C(=O)O)cn(C6CC6)c5c4OC)C[C@H]32)c2ccccc21` fall in the same range of MIC: 0.39 to 16 mg/L (≈ 0.627 to 25.7 µM) for the first, 0.39 to 16 mg/L (≈ 0.646 to 26.5 µM) for the second.

`CCO/N=C1\C(=O)N(CCN2CCC[C@H]3CN(c4c(F)cc5c(=O)c(C(=O)O)cn(C6CC6)c5c4OC)C[C@H]32)c2ccccc21` and `CCO/N=C1\C(=O)N(CN2CCC[C@H]3CN(c4c(F)cc5c(=O)c(C(=O)O)cn(C6CC6)c5c4OC)C[C@H]32)c2ccccc21` fall in the same range of MIC: 0.39 to 16 mg/L (≈ 0.631 to 25.9 µM) for the first, 0.39 to 16 mg/L (≈ 0.646 to 26.5 µM) for the second.

`COc1c(N2C[C@@H]3CCCN(CN4C(=O)C(=O)c5cc(F)ccc54)[C@@H]3C2)c(F)cc2c(=O)c(C(=O)O)cn(C3CC3)c12` and `COc1c(N2C[C@@H]3CCCN(CCN4C(=O)C(=O)c5cc(F)ccc54)[C@@H]3C2)c(F)cc2c(=O)c(C(=O)O)cn(C3CC3)c12` fall in the same range of MIC: 0.39 to 16 mg/L (≈ 0.674 to 27.7 µM) for the first, 0.39 to 16 mg/L (≈ 0.658 to 27 µM) for the second.

`COc1c(N2C[C@@H]3CCCN(CCN4C(=O)/C(=N\NC(N)=S)c5cc(F)ccc54)[C@@H]3C2)c(F)cc2c(=O)c(C(=O)O)cn(C3CC3)c12` and `COc1c(N2C[C@@H]3CCCN(CCN4C(=O)/C(=N\NC(N)=O)c5cc(F)ccc54)[C@@H]3C2)c(F)cc2c(=O)c(C(=O)O)cn(C3CC3)c12` fall in the same range of MIC: 0.39 to 16 mg/L (≈ 0.586 to 24 µM) for the first, 0.39 to 16 mg/L (≈ 0.6 to 24.6 µM) for the second.

`COc1c(N2C[C@@H]3CCCN(CN4C(=O)/C(=N\O)c5ccccc54)[C@@H]3C2)c(F)cc2c(=O)c(C(=O)O)cn(C3CC3)c12` and `COc1c(N2C[C@@H]3CCCN(CCN4C(=O)/C(=N\O)c5ccccc54)[C@@H]3C2)c(F)cc2c(=O)c(C(=O)O)cn(C3CC3)c12` fall in the same range of MIC: 0.39 to 16 mg/L (≈ 0.678 to 27.8 µM) for the first, 0.39 to 16 mg/L (≈ 0.661 to 27.1 µM) for the second.

`COc1c(N2C[C@@H]3CCCN(CN4C(=O)C(=O)c5ccccc54)[C@@H]3C2)c(F)cc2c(=O)c(C(=O)O)cn(C3CC3)c12` and `COc1c(N2C[C@@H]3CCCN(CCN4C(=O)C(=O)c5ccccc54)[C@@H]3C2)c(F)cc2c(=O)c(C(=O)O)cn(C3CC3)c12` fall in the same range of MIC: 0.39 to 16 mg/L (≈ 0.696 to 28.5 µM) for the first, 0.39 to 16 mg/L (≈ 0.679 to 27.8 µM) for the second.

`CO/N=C1\C(=O)N(CN2CCC[C@H]3CN(c4c(F)cc5c(=O)c(C(=O)O)cn(C6CC6)c5c4OC)C[C@H]32)c2ccccc21` and `COc1c(N2C[C@@H]3CCCN(CN4C(=O)/C(=N\NC(N)=S)c5ccccc54)[C@@H]3C2)c(F)cc2c(=O)c(C(=O)O)cn(C3CC3)c12` fall in the same range of MIC: 0.39 to 16 mg/L (≈ 0.661 to 27.1 µM) for the first, 0.39 to 16 mg/L (≈ 0.615 to 25.2 µM) for the second.

`COc1c(N2C[C@@H]3CCCN(CCN4C(=O)/C(=N\O)c5cc(F)ccc54)[C@@H]3C2)c(F)cc2c(=O)c(C(=O)O)cn(C3CC3)c12` and `COc1c(N2C[C@@H]3CCCN(CN4C(=O)/C(=N\NC(N)=O)c5ccccc54)[C@@H]3C2)c(F)cc2c(=O)c(C(=O)O)cn(C3CC3)c12` fall in the same range of MIC: 0.39 to 16 mg/L (≈ 0.642 to 26.3 µM) for the first, 0.39 to 16 mg/L (≈ 0.631 to 25.9 µM) for the second.

With `COc1c(N2C[C@@H]3CCCN[C@@H]3C2)c(F)cc2c(=O)c(C(=O)O)cn(C3CC3)c12` [MOXIFLOXACIN] the MIC was 0.1 to 1 mg/L (≈ 0.249 to 2.49 µM).

system: Mycobacterium tuberculosis; test: Potency index, ratio of isoniazid MIC to test compound MIC for multidrug-resistant Mycobacterium tuberculosis; assay type: functional

In the case of `CO/N=C1/C(=O)N(CCCN2CCN(c3c(F)cc4c(=O)c(C(=O)O)cn(C5CC5)c4c3OC)CC2C)c2ccc(F)cc21` (centres undefined), the Ratio is reported as “>=4 - 512”.

system: Mycobacterium tuberculosis; test: Antimycobacterial activity against multidrug-resistant Mycobacterium tuberculosis after 3 to 7 days by rapid direct susceptibility test; assay type: functional

`CO/N=C1/C(=O)N(CCn2cc(CN3CCC[C@H]4CN(c5c(F)cc6c(=O)c(C(=O)O)cn(C7CC7)c6c5OC)C[C@H]43)nn2)c2ccccc21` and `CCO/N=C1/C(=O)N(CCn2cc(CN3CCC[C@H]4CN(c5c(F)cc6c(=O)c(C(=O)O)cn(C7CC7)c6c5OC)C[C@H]43)nn2)c2ccccc21` fall in the same range of MIC: 0.1 to 0.78 mg/L (≈ 0.146 to 1.14 µM) for the first, 0.1 to 0.78 mg/L (≈ 0.143 to 1.12 µM) for the second.

`COc1c(N2C[C@@H]3CCCN(Cc4cn(CCN5C(=O)/C(=N/NC(N)=O)c6ccccc65)nn4)[C@@H]3C2)c(F)cc2c(=O)c(C(=O)O)cn(C3CC3)c12` and `COc1c(N2C[C@@H]3CCCN(Cc4cn(CCN5C(=O)/C(=N/O)c6ccccc65)nn4)[C@@H]3C2)c(F)cc2c(=O)c(C(=O)O)cn(C3CC3)c12` fall in the same range of MIC: 0.1 to 0.78 mg/L (≈ 0.14 to 1.09 µM) for the first, 0.1 to 0.78 mg/L (≈ 0.149 to 1.16 µM) for the second.

`COc1c(N2C[C@@H]3CCCN(Cc4cn(CCN5C(=O)C(=O)c6ccccc65)nn4)[C@@H]3C2)c(F)cc2c(=O)c(C(=O)O)cn(C3CC3)c12` and `COc1c(N2C[C@@H]3CCCN(Cc4cn(CCN5C(=O)C(=O)c6cc(Br)ccc65)nn4)[C@@H]3C2)c(F)cc2c(=O)c(C(=O)O)cn(C3CC3)c12` fall in the same range of MIC: 0.1 to 0.78 mg/L (≈ 0.153 to 1.19 µM) for the first, 0.1 to 0.78 mg/L (≈ 0.136 to 1.06 µM) for the second.

`CO/N=C1/C(=O)N(CCn2cc(CN3CCC[C@H]4CN(c5c(F)cc6c(=O)c(C(=O)O)cn(C7CC7)c6c5OC)C[C@H]43)nn2)c2ccc(Br)cc21` and `CCO/N=C1/C(=O)N(CCn2cc(CN3CCC[C@H]4CN(c5c(F)cc6c(=O)c(C(=O)O)cn(C7CC7)c6c5OC)C[C@H]43)nn2)c2ccc(Br)cc21` fall in the same range of MIC: 0.1 to 0.78 mg/L (≈ 0.131 to 1.02 µM) for the first, 0.1 to 0.78 mg/L (≈ 0.129 to 1 µM) for the second.

`COc1c(N2C[C@@H]3CCCN(Cc4cn(CCN5C(=O)/C(=N/O)c6cc(Br)ccc65)nn4)[C@@H]3C2)c(F)cc2c(=O)c(C(=O)O)cn(C3CC3)c12` and `COc1c(N2C[C@@H]3CCCN(Cc4cn(CCN5C(=O)/C(=N/NC(N)=O)c6cc(Br)ccc65)nn4)[C@@H]3C2)c(F)cc2c(=O)c(C(=O)O)cn(C3CC3)c12` fall in the same range of MIC: 0.1 to 0.78 mg/L (≈ 0.133 to 1.04 µM) for the first, 0.1 to 0.78 mg/L (≈ 0.126 to 0.985 µM) for the second.

Compared with `CO/N=C1/C(=O)N(CCCN2CCN(c3c(F)cc4c(=O)c(C(=O)O)cn(C5CC5)c4c3OC)CC2C)c2ccc(F)cc21` (centres undefined), `COc1c(N2CCNC(C)C2)c(F)cc2c(=O)c(C(=O)O)cn(C3CC3)c12` (centres undefined) [GATIFLOXACIN] is 4-fold higher in MIC: 0.25 mg/L (≈ 0.41 µM) for the first, 1 mg/L (≈ 2.66 µM) for the second.

Compared with `NNC(=O)c1ccncc1` [ISONIAZID], `COc1c(N2C[C@@H]3CCCN[C@@H]3C2)c(F)cc2c(=O)c(C(=O)O)cn(C3CC3)c12` [MOXIFLOXACIN] is lower in MIC: > 128 mg/L for the first, 0.12 mg/L (≈ 0.299 µM) for the second.

Work on `CO[C@H]1/C=C/O[C@@]2(C)Oc3c(C)c(O)c4c(O)c(c(/C=N/N5CCN(C)CC5)c(O)c4c3C2=O)NC(=O)/C(C)=C\C=C\[C@H](C)[C@H](O)[C@@H](C)[C@@H](O)[C@@H](C)[C@H](OC(C)=O)[C@@H]1C` [RIFAMPIN] yielded an MIC of 32 to 64 mg/L (≈ 38.9 to 77.8 µM).

system: Mycobacterium tuberculosis; test: Potency index, ratio of rifampicin MIC to test compound MIC for multidrug-resistant Mycobacterium tuberculosis; assay type: functional

For `CO/N=C1/C(=O)N(CCCN2CCN(c3c(F)cc4c(=O)c(C(=O)O)cn(C5CC5)c4c3OC)CC2C)c2ccc(F)cc21` (centres undefined), the Ratio was “>=4 - 512”.
